Laboratory results published in patent EP1124440B1, “USE OF […] FOR FOODSTUFF AND COSMETIC MATERIAL” (Aquacal Limited, priority 1998, dated 2000).
Where two headings read alike, the source gives them in different places.

Assays:
[1] = ice-cream; B = Yellow Colour
Description: 3. Colour was measured using a Minolta colour meter and the results were expressed using LAB values: L = Lightness A = Red Colour B = Yellow Colour
4. A further batch of ice-cream was made to assess if calcium addition effected the over-run properties of the ice-cream.

[2] = water activity; biscuits cooked for exactly eleven minutes
Excerpt: (§1) The biscuits were cooked for exactly eleven minutes and then analysed.
(§2) The following parameters were examined: friability, water activity (Aw) and colour.

[3] = biscuits
Description: Colour was measured using LAB values. L. Brightness A. Red B. Yellow
The LAB values of the biscuits were measured using a Minolta colour meter.

[4] = biscuits cooked for exactly eleven minutes
Excerpt: Four batches of biscuits were made using the following recipe:
as §1, §2

O=C([O-])[O-].[Ca+2] [Calcium Carbonate]
B value [1]: significant difference
Aw [2]: significantly increased
A value ([3]; A = Red): significantly reduced
B value ([3]; B = Yellow): did not effect this value
L value ([3]; L = Brightness): 72.87
Friability [4]: significantly reduced
